EC50 data for ten compounds are collected here from BindingDB's records for doi:10.1021/jm070130j (Johnson & Johnson Pharmaceutical, 2007).

The term EC50 denotes the midpoint of the concentration-response curve. A high value points to a less potent agent.

This experiment has as its target Free fatty acid receptor 1 (Homo sapiens, UniProt O14842). Put plainly: GPR40 FDSS Assay. To be noted: 37 °C. The procedure: Human embryonic kidney (HEK293) cells expressing human GPR40 receptors were grown in Dulbecco modified Eagles medium (DMEM)/F12 media supplemented with 10% fetal FBS and glutamine. Changes in ligand-induced calcium-dependent intracellular fluorescence were measured with a fluorometric plate reader (FDSS; Hamamatsu Corp., Bridgewater, NJ).

Chain of Free fatty acid receptor 1 (O14842 whole entry): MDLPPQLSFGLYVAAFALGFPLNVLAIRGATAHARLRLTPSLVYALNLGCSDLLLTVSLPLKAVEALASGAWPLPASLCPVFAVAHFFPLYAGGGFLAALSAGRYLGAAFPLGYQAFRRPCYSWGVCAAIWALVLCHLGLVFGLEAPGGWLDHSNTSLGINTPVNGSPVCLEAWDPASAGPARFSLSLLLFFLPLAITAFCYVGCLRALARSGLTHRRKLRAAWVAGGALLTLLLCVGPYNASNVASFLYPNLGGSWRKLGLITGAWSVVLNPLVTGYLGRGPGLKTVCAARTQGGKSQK

With `CCCCOc1ccc(C(CC(=O)O)c2ccccc2)cc1` (stereo not given) [3-(4-butoxyphenyl)-3-phenylpropanoic acid], the response was half-maximal at 1.2 µM (EC50).

For the compound `CCCCOc1ccc(C(CCCC(=O)O)c2ccccc2)cc1` (stereo not given) [5-(4-butoxyphenyl)-5-phenylpentanoic acid], the EC50 was greater than 10 µM.

Take `CCCCCOc1cccc(C(CC(=O)O)c2ccccc2)c1` (stereo not given) [3-[3-(pentyloxy)phenyl]-3-phenylpropanoic acid]: the EC50 is greater than 10 µM.

In turn, `C/C=C/COc1ccc(C(CC(=O)O)c2ccccc2)cc1` (stereo not given) [3-{4-[(2E)-but-2-en-1-yloxy]phenyl}-3-phenylpropanoic acid] had an EC50 of 2.71 µM.

Compound `CCC(C)COc1ccc(C(CC(=O)O)c2ccccc2)cc1` (stereo not given) [3-[4-(2-methylbutoxy)phenyl]-3-phenylpropanoic acid] returned an EC50 of 0.3 µM.

`CCCCOc1ccc(C(CC(=O)O)c2ccc(C(F)(F)F)cc2)cc1` (stereo not given) [3-(4-butoxyphenyl)-3-[4-(trifluoromethyl)phenyl]propanoic acid] had an EC50 greater than 10 µM.

For the compound `CC(C)CCOc1ccc(C(CC(=O)O)c2ccccc2)cc1` (stereo not given) [3-[4-(3-methylbutoxy)phenyl]-3-phenylpropanoic acid], a half-maximal response (EC50) required 1.86 µM.

The compound `CCCCOc1ccc(C(CC(=O)O)c2cccs2)cc1` (stereo not given) [3-(4-butoxyphenyl)-3-(thiophen-2-yl)propanoic acid] displayed a half-maximal effective concentration (EC50) of 1.29 µM. The EC50 values of the last two compounds are within 1.5-fold of each other.

Compound `CCCCCOc1ccc(C(CC(=O)O)c2ccccc2)cc1` (stereo not given) [3-[4-(pentyloxy)phenyl]-3-phenylpropanoic acid] had an EC50 of 2.97 µM.

`CCCOc1ccc(C(CC(=O)O)c2ccccc2)cc1` (stereo not given) [3-phenyl-3-(4-propoxyphenyl)propanoic acid] showed a concentration for a half-maximal effect (EC50) of 4.8 µM.
